Reference: ChEMBL document CHEMBL1151633, “Biological Activities of Asterosaponins With Special Reference to Structure-Activity Relationships” (J Nat Prod, 1984)
≈ marks a conversion by molar mass, not a printed value. Calls of active or inactive are those of the source. No cut-off for these calls is given here.

Assays:
[1] = test system: Hemicentrotus pulcherrimus; assay: Inhibition of first cleavage in sea urchin embryo after 1.5 hrs by microscopy; format: functional
[2] = Toxicity in sea urchin embryo assessed as inhibition of embryo development before morula stage after 24 hrs by microscopy; details: hemicentrotus pulcherrimus
Patiria pectinifera [3] = assay: Effect on starfish embryo development assessed as abnormal embryo induction at bastula or gastula stage after 24 hrs by lactoorcein staining; format: functional
Patiria pectinifera [4] = assay: Inhibition of actin polymerization in starfish during embryogenesis
[5] = Toxicity in rabbit RBC assessed as hemolytic index; format: cell-based, Oryctolagus cuniculus; details: erythrocyte
Patiria pectinifera [6] = assay: Effect on starfish embryo development assessed as incomplete cytokinesis by lactoorcein staining; format: functional
Patiria pectinifera [7] = assay: Effect on starfish embryo development assessed as occurrence of multinuclei by lactoorcein staining; format: functional

Row | SMILES | ED50 [1] [µg/mL] | LD99 [2] [µg/mL] | ED50 (Patiria pectinifera [3]) [µg/mL] | Activity (Patiria pectinifera [4]) | HI [5] | Activity (Patiria pectinifera [6]) | Activity (Patiria pectinifera [7])
1 | CC(=O)[C@H]1CC[C@H]2[C@@H]3C[C@H](OC4O[C@H](C)[C@@H](O)[C@H](OC5OC[C@@H](OC6O[C@H](CO)[C@H](O)[C@H](O)[C@H]6OC6O[C@H](C)[C@H](O)[C@H](O)[C@H]6O)[C@H](O)[C@H]5OC5O[C@H](C)[C@@H](O)[C@H](O)[C@H]5O)[C@H]4O)[C@H]4C[C@@H](OS(=O)(=O)[O-])CC[C@]4(C)C3=CC[C@]12C.[Na+] (stereo not given in full) | > 50 | > 50 | 100 | Active | < 2270 | – | –
2 | CC(C)=CC(=O)C[C@@](C)(O)[C@H]1CC[C@H]2[C@@H]3C[C@H](OC4O[C@H](C)[C@@H](O)[C@H](OC5OC[C@@H](OC6O[C@H](CO)[C@H](O)[C@H](O)[C@H]6OC6O[C@H](C)[C@H](O)[C@H](O)[C@H]6O)[C@H](O)[C@H]5OC5O[C@H](C)[C@@H](O)[C@H](O)[C@H]5O)[C@H]4O)[C@H]4C[C@@H](OS(=O)(=O)[O-])CC[C@]4(C)C3=CC[C@@]21C.[Na+] (stereo not given in full) | 15 | 5 | 100 | Active | – | – | –
3 | CC(C)CC(=O)C[C@@](C)(O)[C@H]1CC[C@H]2[C@@H]3C[C@H](OC4O[C@H](CO)[C@@H](O)[C@H](OC5O[C@H](C)[C@@H](OC6O[C@H](C)[C@@H](O)[C@H](O)[C@H]6OC6O[C@H](C)[C@H](O)[C@H](O)[C@H]6O)[C@H](O)[C@H]5OC5O[C@H](C)[C@@H](O)[C@H](O)[C@H]5O)[C@H]4O)[C@H]4C[C@@H](OS(=O)(=O)[O-])CC[C@]4(C)C3=CC[C@@]21C.[Na+] (stereo not given in full) | 5 | 5 | 50 | Active | – | – | –
4 | CC(C)C(C)C(=O)C[C@@](C)(O)[C@H]1CC[C@H]2[C@@H]3C[C@H](OC4O[C@H](C)[C@@H](O)[C@H](OC5OC[C@@H](OC6O[C@H](CO)[C@H](O)[C@H](O)[C@H]6OC6O[C@H](C)[C@H](O)[C@H](O)[C@H]6O)[C@H](O)[C@H]5OC5O[C@H](C)[C@@H](O)[C@H](O)[C@H]5O)[C@H]4O)[C@H]4C[C@@H](OS(=O)(=O)[O-])CC[C@]4(C)C3=CC[C@@]21C.[Na+] (stereo not given in full) | 5 | 2 | 50 | Active | 31400 | Active | Active
5 | CC(C)CC(=O)C[C@@](C)(O)[C@H]1CC[C@H]2[C@@H]3C[C@H](OC4O[C@H](C)[C@@H](O)[C@H](OC5OC[C@@H](OC6O[C@H](CO)[C@H](O)[C@H](O)[C@H]6OC6O[C@H](C)[C@H](O)[C@H](OC7O[C@H](CO)[C@H](O)[C@H](O)[C@H]7O)[C@H]6O)[C@H](O)[C@H]5OC5O[C@H](C)[C@@H](O)[C@H](O)[C@H]5O)[C@H]4O)[C@H]4C[C@@H](OS(=O)(=O)[O-])CC[C@]4(C)C3=CC[C@@]21C.[Na+] (stereo not given in full) | 30 | 10 | 200 | Active | 5100 | – | –
6 | CC(C)C(C)C(=O)C[C@@](C)(O)[C@H]1CC[C@H]2[C@@H]3C[C@H](OC4O[C@H](C)[C@@H](O)[C@H](OC5OC[C@@H](OC6O[C@H](CO)[C@H](O)[C@H](O)[C@H]6OC6O[C@H](C)[C@H](O)[C@H](OC7O[C@H](C)[C@H](O)[C@H](O)[C@H]7O)[C@H]6O)[C@H](O)[C@H]5OC5O[C@H](C)[C@@H](O)[C@H](O)[C@H]5O)[C@H]4O)[C@H]4C[C@@H](OS(=O)(=O)[O-])CC[C@]4(C)C3=CC[C@@]21C.[Na+] (stereo not given in full) | 5 | 2 | 100 | Active | 21500 | – | –
7 | CC(C)CC(=O)C[C@@](C)(O)[C@H]1CC[C@H]2[C@@H]3C[C@H](OC4O[C@H](C)[C@@H](O)[C@H](OC5OC[C@@H](OC6O[C@H](C)[C@@H](O)[C@H](O)[C@H]6OC6O[C@H](C)[C@H](O)[C@H](OC7O[C@H](C)[C@H](O)[C@H](O)[C@H]7O)[C@H]6O)[C@H](O)[C@H]5OC5O[C@H](C)[C@@H](O)[C@H](O)[C@H]5O)[C@H]4O)[C@H]4C[C@@H](OS(=O)(=O)[O-])CC[C@]4(C)C3=CC[C@@]21C.[Na+] (stereo not given in full) | 15 | 10 | 200 | Active | – | – | –
8 | CC(C)=CC(=O)C[C@@](C)(O)[C@H]1CC[C@H]2[C@@H]3C[C@H](OC4O[C@H](C)[C@@H](O)[C@H](OC5OC[C@@H](OC6O[C@H](C)[C@@H](O)[C@H](O)[C@H]6OC6O[C@H](C)[C@H](O)[C@H](O)[C@H]6O)[C@H](O)[C@H]5OC5O[C@H](C)[C@@H](O)[C@H](O)[C@H]5O)[C@H]4O)[C@H]4C[C@@H](OS(=O)(=O)[O-])CC[C@]4(C)C3=CC[C@@]21C.[Na+] (stereo not given in full) | 50 | 50 | 200 | Active | < 2420 | – | –
9 | CC(C)C(C)C(=O)C[C@@](C)(O)[C@H]1CC[C@H]2[C@@H]3C[C@H](OC4O[C@H](C)[C@@H](O)[C@H](OC5OC[C@@H](OC6O[C@H](C)[C@@H](O)[C@H](O)[C@H]6OC6O[C@H](C)[C@H](O)[C@H](OC7O[C@H](C)[C@H](O)[C@H](O)[C@H]7O)[C@H]6O)[C@H](O)[C@H]5OC5O[C@H](C)[C@@H](O)[C@H](O)[C@H]5O)[C@H]4O)[C@H]4C[C@@H](OS(=O)(=O)[O-])CC[C@]4(C)C3=CC[C@@]21C.[Na+] (stereo not given in full) | 10 | 5 | 200 | Active | 10700 | – | –
10 | CC(C)CC(=O)C[C@@](C)(O)[C@H]1CC[C@H]2[C@@H]3C[C@H](OC4O[C@H](C)[C@@H](O)[C@H](OC5OC[C@@H](OC6O[C@H](CO)[C@@H](O)[C@H](O)[C@H]6OC6O[C@H](C)[C@H](O)[C@H](O)[C@H]6O)[C@H](O)[C@H]5OC5O[C@H](C)[C@@H](O)[C@H](O)[C@H]5O)[C@H]4O)[C@H]4C[C@@H](OS(=O)(=O)[O-])CC[C@]4(C)C3=CC[C@@]21C.[Na+] (stereo not given in full) | 15 | 2 | 200 | Active | – | – | –
11 | CC(C)CC(=O)C[C@@](C)(O)[C@H]1CC[C@H]2[C@@H]3C[C@H](OC4O[C@H](C)[C@@H](O)[C@H](OC5OC[C@@H](OC6O[C@H](CO)[C@H](O)[C@H](O)[C@H]6OC6O[C@H](C)[C@H](O)[C@H](OC7O[C@H](C)[C@H](O)[C@H](O)[C@H]7O)[C@H]6O)[C@H](O)[C@H]5OC5O[C@H](C)[C@@H](O)[C@H](O)[C@H]5O)[C@H]4O)[C@H]4C[C@@H](OS(=O)(=O)[O-])CC[C@]4(C)C3=CC[C@@]21C.[Na+] (stereo not given in full) | 15 | 5 | 200 | Active | 11400 | – | –
12 | CC(C)CC(=O)C[C@@](C)(O)[C@H]1CC[C@H]2[C@@H]3C[C@H](OC4O[C@H](C)[C@@H](O)[C@H](OC5OC[C@@H](OC6O[C@H](CO)[C@H](O)[C@H](O)[C@H]6OC6O[C@H](C)[C@H](O)[C@H](O)[C@H]6O)[C@H](O)[C@H]5OC5O[C@H](C)[C@@H](O)[C@H](O)[C@H]5O)[C@H]4O)[C@H]4C[C@@H](OS(=O)(=O)[O-])CC[C@]4(C)C3=CC[C@@]21C.[Na+] (stereo not given in full) | 10 | 5 | 100 | Active | 22000 | – | –
13 | CC(C)CC(=O)C[C@@](C)(O)[C@H]1CC[C@H]2[C@@H]3C[C@H](O[C@@H]4O[C@H](C)C(=O)[C@H](OC5O[C@H](C)[C@@H](OC6O[C@H](C)[C@H](O)[C@H](O)[C@H]6OC6O[C@H](C)[C@H](O)[C@H](O)[C@H]6O)[C@H](O)[C@H]5OC5O[C@H](C)[C@@H](O)[C@H](O)[C@H]5O)[C@H]4O)[C@H]4C[C@@H](OS(=O)(=O)[O-])CC[C@]4(C)C3=CC[C@@]21C.[Na+] (stereo not given in full) | 15 | 5 | 200 | Active | 17700 | – | –
14 | CC(C)CC(=O)C[C@@](C)(O)[C@H]1CC[C@H]2[C@@H]3C[C@H](OC4O[C@H](C)[C@@H](O)[C@H](OC5OC[C@@H](OC6O[C@H](C)[C@@H](O)[C@H](O)[C@H]6OC6O[C@H](C)[C@H](O)[C@H](OC7O[C@H](C)[C@H](O)[C@H](O)[C@H]7O)[C@H]6O)[C@H](O)[C@H]5OC5O[C@H](C)[C@@H](O)[C@H](O)[C@H]5O)[C@H]4O)[C@H]4C[C@@H](O)CC[C@]4(C)C3=CC[C@@]21C (stereo not given in full) | 50 (≈ 38.6 µM) | 10 | 100 (≈ 77.2 µM) | Active | < 2550 | – | –
15 | CC(C)=CC(=O)C[C@@](C)(O)[C@H]1CC[C@H]2[C@@H]3C[C@H](OC4O[C@H](CO)[C@@H](O)[C@H](OC5O[C@H](C)[C@@H](OC6O[C@H](C)[C@@H](O)[C@H](O)[C@H]6OC6O[C@H](C)[C@H](O)[C@H](O)[C@H]6O)[C@H](O)[C@H]5OC5O[C@H](C)[C@@H](O)[C@H](O)[C@H]5O)[C@H]4O)[C@H]4C[C@@H](OS(=O)(=O)[O-])CC[C@]4(C)C3=CC[C@@]21C.[Na+] (stereo not given in full) | 10 | 5 | 50 | Active | – | – | –
16 | CC(C)CC(=O)C[C@@](C)(O)[C@H]1CC[C@H]2[C@@H]3C[C@H](OC4O[C@H](C)[C@@H](O)[C@H](OC5OC[C@@H](OC6O[C@H](C)[C@@H](O)[C@H](O)[C@H]6OC6O[C@H](C)[C@H](O)[C@H](O)[C@H]6O)[C@H](O)[C@H]5OC5O[C@H](C)[C@@H](O)[C@H](O)[C@H]5O)[C@H]4O)[C@H]4C[C@@H](OS(=O)(=O)O)CC[C@]4(C)C3=CC[C@@]21C.N (stereo not given in full) | 15 | 5 | 200 | Active | – | – | –
17 | CC(C)=CC(=O)C[C@@](C)(O)[C@H]1CC[C@H]2[C@@H]3C[C@H](OC4O[C@H](C)[C@@H](O)[C@H](OC5OC[C@@H](OC6O[C@H](C)[C@@H](O)[C@H](O)[C@H]6OC6O[C@H](C)[C@H](O)[C@H](O)[C@H]6O)[C@H](O)[C@H]5OC5O[C@H](C)[C@@H](O)[C@H](O)[C@H]5O)[C@H]4O)[C@H]4C[C@@H](O)CC[C@]4(C)C3=CC[C@@]21C (stereo not given in full) | 10 (≈ 8.72 µM) | 10 | 100 (≈ 87.2 µM) | Active | – | – | –
